Test results reported in the Kinase Knowledgebase extract (Sharma et al. 2016).

biological target: PIK3CA (human) (UniProt P42336); experiment: Assessment of PIK3CA Kinase Activity
Sequence (P42336 whole entry, looked up): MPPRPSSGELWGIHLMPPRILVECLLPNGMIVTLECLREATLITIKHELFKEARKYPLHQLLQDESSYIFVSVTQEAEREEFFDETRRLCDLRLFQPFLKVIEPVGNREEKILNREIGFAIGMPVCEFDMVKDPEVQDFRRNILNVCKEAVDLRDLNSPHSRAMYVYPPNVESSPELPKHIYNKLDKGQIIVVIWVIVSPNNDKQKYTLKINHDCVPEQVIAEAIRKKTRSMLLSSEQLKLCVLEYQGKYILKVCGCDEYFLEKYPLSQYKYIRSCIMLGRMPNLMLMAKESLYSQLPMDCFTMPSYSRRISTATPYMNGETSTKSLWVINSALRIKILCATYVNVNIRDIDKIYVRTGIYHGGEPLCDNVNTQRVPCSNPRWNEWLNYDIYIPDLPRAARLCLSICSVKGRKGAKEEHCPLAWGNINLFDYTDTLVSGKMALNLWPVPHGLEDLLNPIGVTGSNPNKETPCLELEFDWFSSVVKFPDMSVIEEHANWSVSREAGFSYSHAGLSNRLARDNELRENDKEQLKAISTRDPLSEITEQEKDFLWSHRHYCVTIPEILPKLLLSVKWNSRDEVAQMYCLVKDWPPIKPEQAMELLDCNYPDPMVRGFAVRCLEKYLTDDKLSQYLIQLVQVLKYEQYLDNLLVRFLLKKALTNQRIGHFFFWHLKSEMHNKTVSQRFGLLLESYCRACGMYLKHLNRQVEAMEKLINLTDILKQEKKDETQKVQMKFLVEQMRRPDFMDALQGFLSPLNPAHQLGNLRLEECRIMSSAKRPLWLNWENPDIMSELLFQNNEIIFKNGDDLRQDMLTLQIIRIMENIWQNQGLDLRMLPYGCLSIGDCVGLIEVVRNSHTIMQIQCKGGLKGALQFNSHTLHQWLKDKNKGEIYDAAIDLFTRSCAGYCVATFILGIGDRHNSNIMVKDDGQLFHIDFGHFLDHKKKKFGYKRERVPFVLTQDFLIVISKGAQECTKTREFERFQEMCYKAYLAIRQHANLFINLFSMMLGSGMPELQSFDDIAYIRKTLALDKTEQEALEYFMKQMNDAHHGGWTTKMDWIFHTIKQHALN

| Compound | IC50 |
| --- | --- |
| CN(C)C(=O)c1ccc(NC(=O)Nc2ccc(-c3nc(N4CCOCC4)c4ccc(-c5ccco5)cc4n3)c(F)c2)cc1 | 50 to 200 nM |
| CN(C)[C@H]1CCN(C(=O)c2ccc(NC(=O)Nc3ccc(-c4nc(N5CCOCC5)c5ccc(C(C)(C)O)cc5n4)cc3)cc2)C1 | 50 to 200 nM |
| CNC(=O)c1ccc(NC(=O)Nc2ccc(-c3nc(N4CCOCC4)c4ccc(-c5cncnc5)cc4n3)cc2F)cc1 | 50 to 200 nM |
| COc1ccc(-c2ccc3c(N4CCOCC4)nc(-c4ccc(NC(=O)Nc5ccc(C(=O)N(C)C)c(F)c5)cc4)nc3c2)cn1 | 50 to 200 nM |
| COc1ncc(-c2ccc3c(N4CCOCC4)nc(-c4ccc(NC(=O)Nc5ccc(C(=O)N(C)C)cc5)c(F)c4)nc3c2)cn1 | 50 to 200 nM |
| CN(C)C(=O)c1ccc(NC(=O)Nc2ccc(-c3nc(N4CCOCC4)c4ccc(-c5ccc(C(C)(C)O)o5)cc4n3)c(F)c2)cc1 | 50 to 200 nM |
| Cc1noc(C)c1-c1ccc2c(N3CCOCC3)nc(-c3ccc(NC(=O)Nc4ccc(C(=O)N(C)C)c(F)c4)cc3)nc2c1 | 50 to 200 nM |
| Cc1ccc(-c2cccc3c(N4CCOCC4)nc(-c4ccc(NC(=O)Nc5ccc(C(=O)N(C)C)cc5)cc4)nc23)o1 | 50 to 200 nM |
| CN(C)C(=O)c1ccc(NC(=O)Nc2ccc(-c3nc(N4CCOCC4)c4ccc(-c5cncnc5)cc4n3)cc2F)cc1 | 50 to 200 nM |
| CN(C)CCNC(=O)c1ccc(NC(=O)Nc2ccc(-c3nc(N4CCOCC4)c4ccc(-c5cncnc5)cc4n3)cc2)cc1 | 50 to 200 nM |
| CN(C)C(=O)c1ccc(NC(=O)Nc2ccc(-c3nc(N4CCOCC4)c4cc(F)c(-c5cccnc5)cc4n3)cn2)cc1 | < 50 nM |
| CN(C)C(=O)c1ccc(NC(=O)Nc2ccc(-c3nc(N4CCOCC4)c4ccc(-c5ccc(C(=O)O)o5)cc4n3)cc2)cc1 | < 50 nM |
| CC(O)c1ccc(-c2cnc3c(N4CCOCC4)nc(-c4ccc(NC(=O)Nc5ccc(C(=O)N(C)C)cc5)cc4)nc3c2)o1 (configuration not stated) | < 50 nM |
| CN1CCN(C(=O)c2ccc(NC(=O)Nc3ccc(-c4nc(N5CCOCC5)c5ccc(-c6ccco6)cc5n4)cc3)cc2)CC1 | < 50 nM |
| CN(C)C(=O)c1ccc(NC(=O)Nc2ccc(-c3nc(N4CCOCC4)c4cccc(-c5cccnc5F)c4n3)cc2)cc1 | 50 to 200 nM |
| COc1ccc2c(N3CCOCC3)nc(-c3ccc(NC(=O)Nc4ccc(C(=O)N(C)C)cc4)c(F)c3)nc2c1 | 50 to 200 nM |
| CN(C)C(=O)c1ccc(NC(=O)Nc2ccc(-c3nc(N4CCOCC4)c4ccc(-c5cccc(S(C)(=O)=O)c5)cc4n3)cc2F)cn1 | < 50 nM |
| CN(C)C(=O)c1ccc(NC(=O)Nc2ccc(-c3nc(N4CCOCC4)c4ccc(-c5cccc(O)c5)cc4n3)cc2)cc1 | < 50 nM |
| CC(=O)Nc1cccc(-c2ccc3c(N4CCOCC4)nc(-c4ccc(NC(=O)Nc5ccc(C(=O)N(C)C)cc5)cc4)nc3c2)c1 | < 50 nM |
| CN(C)C(=O)c1ccc(NC(=O)Nc2ccc(-c3nc(N4CCOCC4)c4ccc(-c5cccc(S(C)(=O)=O)c5)cc4n3)cc2F)cc1 | < 50 nM |
| CN(C)C(=O)c1ccc(NC(=O)Nc2ccc(-c3nc(N4CCOCC4)c4ccc(-c5ccnnc5)cc4n3)cc2)cc1 | 50 to 200 nM |

| Compound | IC50 |
| --- | --- |
| CN(C)C(=O)c1ccc(NC(=O)Nc2ccc(-c3nc(N4CCOCC4)c4cc(F)c(-c5cncnc5)cc4n3)cn2)cc1 | < 50 nM |
| CN(C)C(=O)c1ccc(NC(=O)Nc2ccc(-c3nc(N4CCOCC4)c4ncc(-c5cccnc5F)cc4n3)c(F)c2)cc1 | < 50 nM |
| CN(C)C(=O)c1ccc(NC(=O)Nc2ccc(-c3nc(N4CCOCC4)c4ncc(-c5cccnc5F)cc4n3)cc2)cc1 | < 50 nM |
| CN(C)[C@H]1CCN(C(=O)c2ccc(NC(=O)Nc3ccc(-c4nc(N5CCOCC5)c5ncc(-c6cncnc6)cc5n4)cc3)cc2)C1 | < 50 nM |
| CN(C)CC(=O)Nc1cncc(-c2ccc3c(N4CCOCC4)nc(-c4ccc(NC(=O)Nc5ccc(C(=O)N(C)C)cc5)cc4)nc3c2)c1 | < 50 nM |
| Cc1ccncc1-c1cnc2c(N3CCOCC3)nc(-c3ccc(NC(=O)Nc4ccc(C(=O)N(C)C)cc4)cc3)nc2c1 | < 50 nM |
| CN(C)C(=O)c1ccc(NC(=O)Nc2ccc(-c3nc(N4CCOCC4)c4ccc(-c5cnc(O)nc5)cc4n3)cc2)cc1 | < 50 nM |
| CN(C)C(=O)c1ccc(NC(=O)Nc2ccc(-c3nc(N4CCOCC4)c4ccc(-c5ccc(C(C)(C)O)o5)cc4n3)cc2)cc1 | < 50 nM |
| CN(C)C(=O)c1ccc(NC(=O)Nc2ccc(-c3nc(N4CCOCC4)c4ccc(-c5ccco5)cc4n3)cc2)c(F)c1 | < 50 nM |
| CN(C)CCNC(=O)c1ccc(-c2ccc3c(N4CCOCC4)nc(-c4ccc(NC(=O)Nc5ccc(C(=O)N(C)C)cc5)cc4)nc3c2)o1 | 50 to 200 nM |
| CN1CCN(C(=O)c2ccc(-c3ccc4c(N5CCOCC5)nc(-c5ccc(NC(=O)Nc6ccc(C(=O)N(C)C)cc6)cc5)nc4c3)o2)CC1 | < 50 nM |
| Cc1ccc(-c2ccc3c(N4CCOCC4)nc(-c4ccc(NC(=O)Nc5ccc(C(=O)N(C)C)c(F)c5)cc4)nc3c2)o1 | 50 to 200 nM |
| Cc1ccc(-c2ccc3c(N4CCOCC4)nc(-c4ccc(NC(=O)Nc5ccc(C(=O)N6CCN(C)CC6)cc5)cc4)nc3c2)o1 | 50 to 200 nM |
| CNC(=O)c1ccc(NC(=O)Nc2ccc(-c3nc(N4CCOCC4)c4ncc(-c5cnn(C)c5)cc4n3)cc2)cc1 | < 50 nM |
| CN(C)C(=O)c1ccc(NC(=O)Nc2ccc(-c3nc(N4CCOCC4)c4ccc(-c5ccccn5)cc4n3)cc2F)cc1 | 50 to 200 nM |
| CC(=O)Nc1ccc(NC(=O)Nc2ccc(-c3nc(N4CCOCC4)c4ccc(-c5ccc(C)o5)cc4n3)cc2)cc1 | 50 to 200 nM |
| CN(C)C(=O)c1ccc(NC(=O)Nc2ccc(-c3nc(N4CCOCC4)c4ccc(-c5ccncc5F)cc4n3)cc2)cc1 | < 50 nM |
| CN(C)C(=O)c1ccc(NC(=O)Nc2ccc(-c3nc(N4CCOCC4)c4ccc(-c5cncc(F)c5)cc4n3)cc2)cc1 | < 50 nM |
| CN(C)C(=O)c1ccc(NC(=O)Nc2ccc(-c3nc(N4CCOCC4)c4cc(F)c(-c5cccnc5)cc4n3)cc2F)cc1 | 50 to 200 nM |
| CN(C)C(=O)c1ccc(NC(=O)Nc2ccc(-c3nc(N4CCOCC4)c4cc(F)c(-c5cnn(C)c5)cc4n3)cc2)cc1 | < 50 nM |

Next, values leading:

| IC50 | Compound |
| --- | --- |
| < 50 nM | CN(C)C(=O)c1ccc(NC(=O)Nc2ccc(-c3nc(N4CCOCC4)c4ccc(-c5ccc(CO)o5)cc4n3)cc2)cc1 |
| < 50 nM | CC(=O)c1ccc(-c2ccc3c(N4CCOCC4)nc(-c4ccc(NC(=O)Nc5ccc(C(=O)N(C)C)c(F)c5)cc4)nc3c2)o1 |
| < 50 nM | CC(=O)Nc1ccc(NC(=O)Nc2ccc(-c3nc(N4CCOCC4)c4ccc(-c5cncnc5)cc4n3)cc2)cc1 |
| < 50 nM | COc1ccncc1-c1ccc2c(N3CCOCC3)nc(-c3ccc(NC(=O)Nc4ccc(C(=O)N(C)C)cc4)cc3)nc2c1 |
| < 50 nM | N[C@H]1CCN(C(=O)c2ccc(NC(=O)Nc3ccc(-c4nc(N5CCOCC5)c5ccc(-c6ccco6)cc5n4)cc3)cc2)C1 |
| < 50 nM | CN(C)[C@H]1CCN(C(=O)c2ccc(NC(=O)Nc3ccc(-c4nc(N5CCOCC5)c5ccc(-c6cncnc6)cc5n4)cc3)cc2)C1 |
| < 50 nM | COc1ncc(-c2cnc3c(N4CCOCC4)nc(-c4ccc(NC(=O)Nc5ccc(C(=O)N(C)C)cc5)c(F)c4)nc3c2)cn1 |
| < 50 nM | CN(C)[C@@H]1CCN(C(=O)c2ccc(NC(=O)Nc3ccc(-c4nc(N5CCOCC5)c5ncc(-c6cnn(C)c6)cc5n4)cc3F)cc2)C1 |
| < 50 nM | CN(C)C(=O)c1ccc(NC(=O)Nc2ccc(-c3nc(N4CCOCC4)c4ccc(-c5ccccn5)cc4n3)c(F)c2)cc1 |
| < 50 nM | CN(C)CCNC(=O)c1ccc(NC(=O)Nc2ccc(-c3nc(N4CCOCC4)c4ccc(-c5ccco5)cc4n3)cc2)cc1 |
| < 50 nM | CN(C)C(=O)c1ccc(NC(=O)Nc2ccc(-c3nc(N4CCOCC4)c4ccc(-c5cnn(C)c5)cc4n3)cn2)c(F)c1 |
| < 50 nM | CN(C)C(=O)c1ccc(NC(=O)Nc2ccc(-c3nc(N4CCOCC4)c4ncc(-c5cccnc5)cc4n3)cc2)cc1 |
| < 50 nM | COc1ncc(-c2ccc3c(N4CCOCC4)nc(-c4ccc(NC(=O)Nc5ccc(C(=O)N(C)C)cc5)cc4)nc3c2)cn1 |
| < 50 nM | CN(C)C(=O)c1ccc(NC(=O)Nc2ccc(-c3nc(N4CCOCC4)c4ccc(-c5ccnc(F)c5)cc4n3)cc2)cc1 |
| < 50 nM | Cc1ccc(-c2ccc3c(N4CCOCC4)nc(-c4ccc(NC(=O)Nc5ccc(C(=O)N(C)C)cc5)nc4)nc3c2)o1 |
| < 50 nM | CN(C)C(=O)c1ccc(NC(=O)Nc2ccc(-c3nc(N4CCOCC4)c4ncc(-c5cccnc5)cc4n3)cc2)cc1F |

| IC50 | Compound |
| --- | --- |
| < 50 nM | COc1ncc(-c2ccc3c(N4CCOCC4)nc(-c4ccc(NC(=O)Nc5ccc(C(=O)N(C)C)cc5)nc4)nc3c2)cn1 |
| < 50 nM | CN(C)[C@H]1CCN(C(=O)c2ccc(NC(=O)Nc3ccc(-c4nc(N5CCOCC5)c5cc(F)c(-c6cccnc6)cc5n4)cc3)cc2)C1 |
| < 50 nM | COc1ncc(-c2cnc3c(N4CCOCC4)nc(-c4ccc(NC(=O)Nc5ccc(C(=O)N(C)C)cc5)cc4F)nc3c2)cn1 |
| < 50 nM | CN1CCN(C(=O)c2ccc(NC(=O)Nc3ccc(-c4nc(N5CCOCC5)c5cc(F)c(-c6cccnc6)cc5n4)cc3F)cc2)CC1 |
| < 50 nM | Cc1ccc(-c2ccc3c(N4CCOCC4)nc(-c4ccc(NC(=O)Nc5ccc(C(=O)N(C)C)cc5)cc4)nc3c2)cn1 |
| < 50 nM | CN(C)C(=O)c1ccc(NC(=O)Nc2ccc(-c3nc(N4CCOCC4)c4ccc(-c5cnn(C)c5)cc4n3)cc2)cc1 |
| < 50 nM | CN(C)C(=O)c1ccc(NC(=O)Nc2ccc(-c3nc(N4CCOCC4)c4ccc(-c5ccc(CO)o5)cc4n3)cc2)c(F)c1 |
| < 50 nM | CN1CCN(C(=O)c2ccc(NC(=O)Nc3ccc(-c4nc(N5CCOCC5)c5ccc(-c6cccnc6F)cc5n4)cc3)cc2)CC1 |
| < 50 nM | Cc1ncccc1-c1ccc2c(N3CCOCC3)nc(-c3ccc(NC(=O)Nc4ccc(C(=O)N(C)C)cc4)cc3)nc2c1 |
| < 50 nM | CN(C)C(=O)c1ccc(NC(=O)Nc2ccc(-c3nc(N4CCOCC4)c4ccc(-c5cnn(C)c5)cc4n3)cn2)cc1 |
| < 50 nM | CN(C)C(=O)c1ccc(NC(=O)Nc2ccc(-c3nc(N4CCOCC4)c4ncc(-c5cccnc5F)cc4n3)cc2)c(F)c1 |
| < 50 nM | CC(=O)Nc1cncc(-c2ccc3c(N4CCOCC4)nc(-c4ccc(NC(=O)Nc5ccc(C(=O)N(C)C)cc5)cc4)nc3c2)c1 |
| < 50 nM | O=C(Nc1ccc(C(=O)N2CCC(O)C2)cc1)Nc1ccc(-c2nc(N3CCOCC3)c3ccc(-c4ccco4)cc3n2)cc1 (configuration not stated) |
| < 50 nM | CN(C)C(=O)c1ccc(NC(=O)Nc2ccc(-c3nc(N4CCOCC4)c4cc(F)c(-c5cccc(S(C)(=O)=O)c5)cc4n3)cc2)cc1 |
| < 50 nM | CN(C)C(=O)c1ccc(NC(=O)Nc2ccc(-c3nc(N4CCOCC4)c4ncc(-c5cccnc5)cc4n3)cc2F)cc1 |
